Measurements: paper PMC8467576, “Novel Ubiquitin Specific Protease-13 Inhibitors Alleviate Neurodegenerative Pathology” (Metabolites, 2021)

Tests used:
USP13 = target: T1, USP13 (Homo sapiens, UniProt Q92995); test: USP13 activity via functional ELISA in alpha-synuclein transfected SH-SY5Y cells; assay type: cell-based; conditions: SH-SY5Y cells transfected with human alpha-synuclein, 5 h, read-out: Estimated IC50 to USP13
T1 construct: ELISA for USP13 (MyBioSource, Cat # MBS9335287, San Diego, CA, USA); endogenous in cells; host or cells: human SH-SY5Y neuroblastoma cells transfected with human wild-type alpha-synuclein
T1 sequence (Q92995 1-863): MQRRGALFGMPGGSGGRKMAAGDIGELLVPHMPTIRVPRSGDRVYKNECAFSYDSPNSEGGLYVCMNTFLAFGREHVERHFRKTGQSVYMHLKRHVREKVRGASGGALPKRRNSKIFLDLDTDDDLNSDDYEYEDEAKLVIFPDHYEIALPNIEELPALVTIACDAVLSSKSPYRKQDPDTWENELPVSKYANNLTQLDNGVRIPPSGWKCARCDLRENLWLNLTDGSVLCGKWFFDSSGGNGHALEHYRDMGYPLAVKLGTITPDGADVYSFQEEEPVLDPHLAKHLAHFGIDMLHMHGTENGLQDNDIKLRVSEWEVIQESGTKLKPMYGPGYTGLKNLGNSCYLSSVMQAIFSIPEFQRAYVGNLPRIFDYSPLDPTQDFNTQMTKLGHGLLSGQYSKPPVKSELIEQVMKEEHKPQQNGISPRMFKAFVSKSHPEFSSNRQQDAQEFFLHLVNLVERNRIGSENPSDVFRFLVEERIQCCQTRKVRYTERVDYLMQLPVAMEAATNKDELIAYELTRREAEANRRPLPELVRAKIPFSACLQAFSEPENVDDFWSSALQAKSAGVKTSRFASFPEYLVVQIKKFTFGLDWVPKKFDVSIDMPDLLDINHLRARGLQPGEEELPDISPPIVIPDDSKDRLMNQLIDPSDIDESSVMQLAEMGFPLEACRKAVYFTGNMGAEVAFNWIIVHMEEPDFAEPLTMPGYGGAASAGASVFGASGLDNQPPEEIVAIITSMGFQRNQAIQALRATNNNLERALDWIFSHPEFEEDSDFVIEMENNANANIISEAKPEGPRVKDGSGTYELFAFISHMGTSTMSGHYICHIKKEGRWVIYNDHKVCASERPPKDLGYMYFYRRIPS
Procedure: (§1) Stably transfected human neuroblastoma SH-SY5Y cells with human wild-type alpha-synuclein were treated with 1 mM, 100 µM, 10 µM, 1 µM, 0.1 µM, 0.01 µM and 0.001 µM of each of BK50118-A, BK50118-B, BK50118-C, CL3-499, CL3-512 and CL3-514 dissolved in an equivalent volume of DMSO for 5 h. […] The other 5 compounds were also able to lower alpha-synuclein levels but with less potency (Figure 3H,I,K–M).
SH-SY5Y cells were transiently transfected for 24 h with human wild-type α-synuclein using Fugene HD transfection reagent (Promega, E2311, Madison, WI, USA) according to manufacturer’s protocol. Cells were treated with 1 mM, 0.1 mM, 0.01 mM, 1 µM, 0.1 µM, 0.01 µM and 0.001 µM of each novel compounds (BK50118-A, BK50118-B, BK50118-C, CL3-499, CL3-512 and CL3-514) dissolved in DMSO for 5 h. Cells were then harvested on ice by removing culture medium and adding 0.2 mL 1x sodium-tris, EDTA, NP-40 (STEN) buffer (50 mM Tris (pH 7.6), 150 mM NaCl, 2 mM EDTA, 0.2 % NP-40, 0.2 % with Halt protease and phosphatase inhibitor solution (ThermoFisher, 78446). Cells were detached with a cell scraper and collected into centrifuge tubes and incubated at 4 °C for 30 min with agitation. Samples were stored at −80 °C and used for ELISA analyses. For cell viability assay, SHSY-5Y cells stably expressing human wild-type alpha-synuclein were treated with 1 mM, 0.1 mM, 0.01 mM, 1 µM, 0.1 µM, 0.01 µM and 0.001 µM of each novel compound (BK50118-A, BK50118-B, BK50118-C, CL3-499, CL3-512 and CL3-514) dissolved in DMSO for 5 h. Cell viability was determined via lactate dehydrogenase assay on culture media (Thermofisher, 88954) and MTT assay on plated cells (Thermofisher, V13154).
The ELISA for USP13 (MyBioSource, Cat # MBS9335287, San Diego, CA, USA), Human alpha-synuclein (Biolegend, Cat # 844101, San Diego, CA, USA) and specific p-Tau ser396 (Invitrogen, KHB7031, Waltham, MA, USA) were performed on cell or brain tissue extracts as described above according to manufacturers’ protocol.
All statistical analyses were performed using GraphPad Prism version 5.0 (GraphPad software, Inc, San Diego, CA, USA). Two-tailed student’s t-test was used in comparison of means of two groups. Ordinary one-way analysis of variance (ANOVA) followed by Newman–Keuls or Dunnett comparison post hoc tests were used in comparison of means of multiple groups. Asterisks denote actual p-value significances (* < 0.05, ** < 0.01, *** < 0.001 and **** < 0.0001), and N is the number of animals or the number of independent experiments (cell culture) per group. Unless otherwise indicated, data are expressed as Mean ± SD. IC50 to USP13 levels was also estimated using GraphPad Prism version 5.0 (GraphPad software, Inc, San Diego, CA, USA).

human alpha-synuclein = test: Human alpha-synuclein ELISA in transfected SH-SY5Y cells; assay type: cell-based; conditions: 5 h, at 1 mM and 100 µM
Procedure: as §1
SH-SY5Y cells were transiently transfected for 24 h with human wild-type α-synuclein using Fugene HD transfection reagent (Promega, E2311, Madison, WI, USA) according to manufacturer’s protocol. Cells were treated with 1 mM, 0.1 mM, 0.01 mM, 1 µM, 0.1 µM, 0.01 µM and 0.001 µM of each novel compounds (BK50118-A, BK50118-B, BK50118-C, CL3-499, CL3-512 and CL3-514) dissolved in DMSO for 5 h. […] Cell viability was determined via lactate dehydrogenase assay on culture media (Thermofisher, 88954) and MTT assay on plated cells (Thermofisher, V13154). […]

IC50 (USP13): 0.42 nM
Compound: Fc1ccc2nccc(OCc3ccccc3)c2c1 [BK50118-C, 4-benzyloxy-6-fluoroquinoline]
alpha-synuclein levels (ELISA) (human alpha-synuclein): almost complete alpha-synuclein clearance
